Results reported in publication PMC3858566, “Identification of a novel peptide that blocks basic fibroblast growth factor-mediated cell proliferation” (Oncotarget, 2013).
Where no end group is shown, it is not given here.

Tests used:
B16-F10 cells = test: Flow cytometric analysis of cell cycle; format: cell-based, murine; conditions: 48 h
Protocol: Cells were starved for 24 h, and treated with 30 ng/ml bFGF or 30 ng/mL bFGF plus serially-diluted peptides for 48 h. After fixing in 70% ice-cold ethanol for 30 min at 4 °C and washing with PBS for 3 times, cells were stained with propidium iodide (PI) in the dark at room temperature for 30 min. The ModFit DNA analysis program was applied to analyze the percentages of cells at various phases of the cell cycle.

[1] = test system: bFGF receptors on Balb/c 3T3 cells; conditions: range of values previously published; cited from earlier work
[2] = test system: B16-F10 murine melanoma cells; conditions: 48 h, 10 nM
Protocol: Cells were seeded in 96-well plates (5 × 10^3 cells/well) in DMEM containing 10% FBS. After incubation at 37°C for 24 h, the culture medium was replaced by DMEM containing 0.4% FBS to starve the cells for 24 h. The medium was then replaced by DMEM containing 30 ng/ml bFGF, or 30 ng/mL bFGF plus peptide at various concentrations. After culturing for 48 h, the number of viable cells was determined by the methylthiazoletetrazolium (MTT) method as previously described [5].

[3] = test system: bFGF receptors on Balb/c 3T3 cells; test: Receptor binding assay (125I-bFGF competition, Scatchard analysis)
Protocol: The recombinant bFGF was iodinated by the modified chloramine-T method. Briefly, bFGF (5 μg/50 μ1 in 0.5 M phosphate buffer, pH 7.4) was incubated with chloramine-T (20 μg/10 µl of phosphate buffer) and ^125I-labeled sodium (1.12 mCi/10 μ1) at room temperature for 55 sec. The reaction was immediately terminated by the addition of sodium metabisulflte (250 μg/200 μl) and 1% potassium iodide (100 μl), and the mixture was applied to a Sephadex G-50 column (1×20 cm) preequilibrated in 50 mM phosphate buffer containing 0.1% BSA to separate ^125I-labeled bFGF from free ^125I.
Confluent Balb/c 3T3 cells (0.5×10^6/well) were incubated with binding buffer (DMEM, 20mM HEPES, pH7.4) containing ^125I-bFGF (50000 cpm) and different concentrations of unlabeled ligand (bFGF or the synthetic peptide) for 2.5 h at 4°C. For nonspecific binding, cells were incubated with ^125I-bFGF (50000 cpm) and an excess of unlabeled bFGF (200 nM). The cells were washed with (3 × 1 ml) cold PBS (50 mM, PH7.4), and lysed with 1% Triton X-100 (500 μl). The radioactivity of the extracts was measured in a γ counter. Specific binding was determined as the difference between total and nonspecific binding, and data were analyzed by Scatchard analysis.

[4] = target: T1, bFGF receptors (FGFR1c/FGFR2c on Balb/c 3T3 cells) (Mus musculus, UniProt P16092); test: 125I-bFGF competition binding on cells
T1 chain: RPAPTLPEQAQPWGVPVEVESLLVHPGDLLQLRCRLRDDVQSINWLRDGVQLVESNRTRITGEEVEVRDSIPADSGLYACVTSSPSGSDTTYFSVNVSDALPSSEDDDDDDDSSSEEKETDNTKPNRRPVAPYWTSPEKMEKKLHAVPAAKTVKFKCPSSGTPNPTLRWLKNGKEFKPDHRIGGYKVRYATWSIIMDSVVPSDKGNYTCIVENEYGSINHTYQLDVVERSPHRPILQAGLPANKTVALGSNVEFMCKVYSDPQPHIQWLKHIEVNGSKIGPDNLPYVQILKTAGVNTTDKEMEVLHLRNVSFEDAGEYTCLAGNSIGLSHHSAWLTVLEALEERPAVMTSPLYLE

[5] = 30 ng/ml bFGF alone, mean ± SD of 3 independent experiments

basic fibroblast growth factor [bFGF]
G0/G1 (B16-F10 cells; [5]): 26.45 ± 1.01%
G2/M (B16-F10 cells; [5]): 7.46 ± 0.56%
S (B16-F10 cells; 30 ng/ml bFGF alone, mean ± SD of 3 independent experiments, * P<0.01 vs control group): 66.09 ± 1.22%
effect of bFGF on cell cycle (B16-F10 cells; bFGF alone, 30 ng/ml): significantly increased the percentage of S phase cells, and decreased the ratio of G0/G1 phase cells
receptor sites per cell of high affinity bFGF receptors, previously published [1]: 0.2-10 ×10^4 sites/cell

LSPPRYPGGGS-NH2 [P9 peptides]
inhibition of bFGF-stimulated proliferation [2]: ~90%

^125I-bFGF: recombinant bFGF iodinated by the modified chloramine-T method
receptor population, 125I-bFGF binding, without P9 [3]: approximately 9,600 sites/cell

LSPPRYPGGGS-NH2 [P9 peptide]
IC50 [4]: ~2.5 nM
